Data on one compound can be found in patent US20240325353A1, “COMPOUND FOR TREATMENT OF COGNITIVE DISORDERS” (Syndesi Therapeutics SA, priority 2021, published 2024).

Where “and” joins values, the source holds several entries; their conditions need not be identical. Equal values may be shown once.

The experiment concerns the target T1, synaptic vesicle glycoprotein 2A (Homo sapiens, UniProt Q7L0J3).
T1 construct: from tissue; host or cells: brain of living healthy male subjects (PET)
Put plainly: [11C]-UCB-J PET receptor occupancy after single oral dose, healthy male subjects, with PK/occupancy model. The format is in vivo. Conditions: for receptor occupancy: individual subjects. As for the experimental part:
All images were acquired using the PET/MR Scanner: GE Signa TOF PET-MR 3 Tesla with software version MP26. As gamma counter, a 1480 Wizard well type gamma counter met 3-inch NaI crystal was used.
[^11C]-UCB-J is a PET tracer for imaging the synaptic vesicle glycoprotein 2A in the human brain. [^11C]-UCB-J is (4R)-1-{[3-(^11C)Methylpyridin-4-yl]methyl}-4-(3,4,5-trifluorophenyl)pyrrolidin-2-one.
Participants arrived approximately 90 minutes prior to the scheduled scan. This allowed the positioning of all necessary peripheral catheters before the start of the PET scan. Prior to PET imaging, at the PET centre, an indwelling venous cannula was inserted into an antecubital vein of the forearm to inject the radioligand. When required, an indwelling arterial catheter was placed in the radial artery of the opposite arm (if not feasible, can be in same arm) by a trained physician after numbing the area with a local anaesthetic prior to placement to withdraw blood for the measurement of the PET input function. On each PET scan day, no more than 3 skin penetrations per arm and one arterial penetration per arm were permitted before trying in the other arm. The venous catheter was used for the injection of [^11C]-UCB-J. [^11C]UCB-J was administered as an i.v. bolus into the antecubital vein over approximately 20 seconds. The tracer volume was between 6 ml and 12 ml. With the pump system configured to inject 0.33 ml per second, tracer injection time varied between 18 sec and 36 sec. The arterial catheter was used for collection of arterial blood samples and no participant received more than two arterial catheterizations during their participation in the study. An arterial catheter was maintained for up to 2 days depending on evaluation by medical staff. In case two arterial catheters were placed during the study conduct, then placement in alternate wrists was done. If the medical staff decided to remove an arterial catheter at any given time, a new one was placed for a next scan taking into account that no more than two arterial catheterizations per participant were allowed. Participants were asked to void their bladder before the start of each PET scan. Participants were positioned in the PET scanner so that scans were acquired in 3D list-mode in one bed position and the entire brain volume was included in the field of view. At screening and simultaneous with the PET acquisition, both a 3D volumetric T1-weighted BRAVO sequence (plane: sagittal; TE: 3.2 ms; TR: 8.5 ms; TI: 450 ms; Flip Angle: 12; Receiver Bandwidth: 31.2; NEX: 1; voxelsize: 1×1×1 mm) and 3D T2-weighted CUBE FLAIR sequence (plane: sagittal direction; TE: 137 ms; #echoes: 1; echo train length: 190; TR: 8500 ms; […]; Receiver Bandwidth: 31.25; NEX: 1; voxelsize: 1.2×1.3×1.4 mm) were acquired to detect possible structural abnormalities, and serve as an anatomical reference to define ROIs when co-registered with the PET scan. To correct for attenuation, a Zero-Echo Time (ZTE) scan was taken to allow the generation of a MR based attenuation map. At intermediate time points during acquisition, the ZTE sequence was repeated to have additional data for adjusting the MR based attenuation map in case of severe head motion. Next to anatomical MR sequences, eASL and rs-fMRI data were acquired simultaneously with the PET data, to determine regional cerebral blood flow and regional interactions in the brain in a resting or task-negative state. At least one eASL and one rs-fMRI sequence were performed during the PET acquisition but these sequences were repeated if time allowed. The total duration of the emission scan was 90 minutes. PET data will be rebinned in time frames according to the following scheme: • 6×15s-3×30s-3×60s-2×90s-2×3 min-9×5 min-3×10 min […]

T1 sequence (Q7L0J3 whole entry): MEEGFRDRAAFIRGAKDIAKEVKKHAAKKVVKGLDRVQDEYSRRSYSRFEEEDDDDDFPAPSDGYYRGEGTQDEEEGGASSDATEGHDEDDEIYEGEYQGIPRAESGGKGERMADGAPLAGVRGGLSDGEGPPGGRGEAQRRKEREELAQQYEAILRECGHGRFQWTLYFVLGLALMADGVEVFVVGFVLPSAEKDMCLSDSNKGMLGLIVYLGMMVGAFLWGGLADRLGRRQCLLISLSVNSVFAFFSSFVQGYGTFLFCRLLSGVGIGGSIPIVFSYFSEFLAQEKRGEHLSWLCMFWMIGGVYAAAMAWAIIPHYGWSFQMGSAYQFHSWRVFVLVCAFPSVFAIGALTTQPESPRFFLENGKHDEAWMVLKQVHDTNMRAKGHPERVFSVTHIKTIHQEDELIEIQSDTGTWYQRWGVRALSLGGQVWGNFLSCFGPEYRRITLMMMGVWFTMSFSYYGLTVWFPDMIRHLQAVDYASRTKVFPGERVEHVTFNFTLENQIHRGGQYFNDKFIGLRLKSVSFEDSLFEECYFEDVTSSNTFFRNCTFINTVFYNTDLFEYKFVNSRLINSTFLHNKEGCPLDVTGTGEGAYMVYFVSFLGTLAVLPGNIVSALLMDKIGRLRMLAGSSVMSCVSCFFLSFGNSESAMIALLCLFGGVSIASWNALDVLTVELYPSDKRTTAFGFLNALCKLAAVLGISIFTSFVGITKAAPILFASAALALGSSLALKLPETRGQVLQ

For `O=C1C[C@H](c2cc(F)c(F)c(F)c2)CN1Cn1ncnc1Cl` [compound of example 1, (4R)-1-[(5-chloro-1H-1,2,4-triazol-1-yl)methyl]-4-(3,4,5-trifluorophenyl)pyrrolidin-2-one], the receptor occupancy entry is, setting by setting: (1 mg single oral dose, 22 h) “below level of detection”; (1 mg single oral dose, tmax (2 h)) 25% and 21%; (2 mg single oral dose, 22 h) 19% and 20%; (2 mg single oral dose, tmax (2 h)) 42% and 39%; (10 mg single oral dose, 22 h) 46% and 50%; (10 mg single oral dose, tmax (2 h)) 68% and 69%. Further, the receptor occupancy runs as follows: (20 mg single oral dose, 26 h) 56% and 66%; (20 mg single oral dose, tmax (2 h)) 76%. Under “humans”, the “emax of PK/occupancy model (mean)” value is 84.9. Moreover, where the note is “humans, plasma concentration, read-out: EC50, plasma concentration vs SV2A occupancy (PK/occupancy model, mean) (converted)”, the EC50 was 75.3 nM.
